Test results from ChEMBL document CHEMBL1201862, “PubChem BioAssay data set” (2004).
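The compound was tested at five concentrations on cells cultured in 96-well plates, with a 48-hour exposure period. Here, GI50 denotes the concentration required for 50% inhibition of growth.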 The source made the active and inactive calls. Cut-off read from the data, not from the text of the source: active = GI50 up to about 1.1 µM and inactive = higher.

Experiments:
Assay in all cases: NCI-60 cell line screen, 48 h
[1] = test system: ACHN
[2] = test system: SK-MEL-5
[3] = test system: SK-MEL-2
[4] = test system: T47D
[5] = test system: MDA-MB-231
[6] = test system: TK-10
[7] = test system: MOLT-4
[8] = test system: NCI-H460
[9] = test system: MDA-N
[10] = test system: UACC-257
[11] = test system: BT-549
[12] = test system: COLO 205
[13] = test system: EKVX
[14] = test system: PC-3
[15] = test system: DU-145
[16] = test system: K562
[17] = test system: CCRF-CEM
[18] = test system: SR
[19] = test system: IGROV-1
[20] = test system: HCT-15

SMILES	GI50 [1]	GI50 [2]	GI50 [3]	GI50 [4]	GI50 [5]	GI50 [6]	GI50 [7]	GI50 [8]	GI50 [9]	GI50 [10]	GI50 [11]	GI50 [12]	GI50 [13]	GI50 [14]	GI50 [15]	GI50 [16]	GI50 [17]	GI50 [18]	GI50 [19]	GI50 [20] [µM]
C[N+](C)(C)CC(=O)N/N=C/c1ccncc1	> 100 µM (inactive)	> 100 µM (inactive)	> 100 µM (inactive)	> 100 µM (inactive)	> 100 µM (inactive)	> 100 µM (inactive)	> 100 µM (inactive)	> 100 µM (inactive)	> 100 µM (inactive)	> 100 µM (inactive)	> 100 µM (inactive)	> 100 µM (inactive)	> 100 µM (inactive)	> 100 µM (inactive)	> 100 µM (inactive)	> 100 µM (inactive)	> 100 µM (inactive)	> 100 µM (inactive)	> 100 µM (inactive)	> 100
CCCC(=O)N(C)/N=N/c1ccc(C(=O)OCC)cc1	> 100 µM (inactive)	> 100 µM (inactive)	> 100 µM (inactive)	63.4 µM (inactive)	> 100 µM (inactive)	> 100 µM (inactive)	> 100 µM (inactive)	22.6 µM (inactive)	> 100 µM (inactive)	> 100 µM (inactive)	> 100 µM (inactive)	–	15.2 µM (inactive)	> 100 µM (inactive)	> 100 µM (inactive)	> 100 µM (inactive)	> 100 µM (inactive)	> 100 µM (inactive)	> 100 µM (inactive)	> 100
CCN(CC)C(=S)N/N=C/c1cc(OC)ccc1O	2.98 µM (inactive)	6.22 µM (inactive)	74.1 µM (inactive)	7.28 µM (inactive)	30.7 µM (inactive)	4.3 µM (inactive)	2.09 µM (inactive)	1.66 µM (inactive)	6.68 µM (inactive)	7.31 µM (inactive)	7.05 µM (inactive)	3.86 µM (inactive)	10.4 µM (inactive)	8.85 µM (inactive)	5.86 µM (inactive)	4.52 µM (inactive)	0.895 µM (active)	2.76 µM (inactive)	6.37 µM (inactive)	1.36
COc1ccc2c(c1)[C@@]13CCCC[C@H]1[C@@H](C2)N(C)CC3=O	16.6 µM (inactive)	22.6 µM (inactive)	25.2 µM (inactive)	17.5 µM (inactive)	18.5 µM (inactive)	19 µM (inactive)	19.7 µM (inactive)	20.8 µM (inactive)	15.3 µM (inactive)	16.5 µM (inactive)	17.4 µM (inactive)	17.3 µM (inactive)	18.5 µM (inactive)	14.8 µM (inactive)	21.8 µM (inactive)	28 µM (inactive)	19.2 µM (inactive)	12.4 µM (inactive)	17.4 µM (inactive)	17.8
COC(=O)C1=C(C)NC(C)=C(C(=O)OC)C1c1ccc(NO)cc1	12.6 µM (inactive)	15.4 µM (inactive)	17.1 µM (inactive)	7.23 µM (inactive)	12.8 µM (inactive)	16.5 µM (inactive)	2.86 µM (inactive)	14.9 µM (inactive)	12.2 µM (inactive)	11 µM (inactive)	13.2 µM (inactive)	12.5 µM (inactive)	19.5 µM (inactive)	13.4 µM (inactive)	19.1 µM (inactive)	1.86 µM (inactive)	0.897 µM (active)	2.47 µM (inactive)	16.3 µM (inactive)	10.9
Clc1cc2nc(C3CCCCO3)[nH]c2cc1Cl (stereo not drawn)	54.8 µM (inactive)	6.03 µM (inactive)	> 100 µM (inactive)	14.3 µM (inactive)	34.3 µM (inactive)	> 77.3 µM (inactive)	33.3 µM (inactive)	18.6 µM (inactive)	4.1 µM (inactive)	59.2 µM (inactive)	11.1 µM (inactive)	26 µM (inactive)	48.1 µM (inactive)	22.3 µM (inactive)	48.6 µM (inactive)	6.47 µM (inactive)	35.3 µM (inactive)	4.49 µM (inactive)	24 µM (inactive)	6.98
CC1=CCC[C@H]2[C@](C)(CC3=CC(=O)C4SCCSC4C3=O)[C@@H](C)CC[C@]12C (stereo partly drawn)	18.2 µM (inactive)	13.8 µM (inactive)	1.71 µM (inactive)	> 100 µM (inactive)	13.2 µM (inactive)	–	21.6 µM (inactive)	20 µM (inactive)	11.4 µM (inactive)	19.3 µM (inactive)	20.6 µM (inactive)	17.7 µM (inactive)	21.3 µM (inactive)	13.5 µM (inactive)	24.5 µM (inactive)	19.9 µM (inactive)	11 µM (inactive)	11.1 µM (inactive)	32 µM (inactive)	23.3
